# Experimental data from patent US12319679B2, “Morpholinyl, piperazinyl, oxazepanyl and diazepanyl O-glycoprotein-2-acetamido-2-deoxy-3-d-glucopyranosidase inhibitors” (BIOGEN MA INC., priority 2018, dated 2025).
# Biological target: T1, Recombinant full length human OGA enzyme (Homo sapiens, UniProt O60502)
# T1 construct: Recombinant full length human OGA enzyme was purchased from Origene; purchased Origene
# T1 sequence (O60502 1-916): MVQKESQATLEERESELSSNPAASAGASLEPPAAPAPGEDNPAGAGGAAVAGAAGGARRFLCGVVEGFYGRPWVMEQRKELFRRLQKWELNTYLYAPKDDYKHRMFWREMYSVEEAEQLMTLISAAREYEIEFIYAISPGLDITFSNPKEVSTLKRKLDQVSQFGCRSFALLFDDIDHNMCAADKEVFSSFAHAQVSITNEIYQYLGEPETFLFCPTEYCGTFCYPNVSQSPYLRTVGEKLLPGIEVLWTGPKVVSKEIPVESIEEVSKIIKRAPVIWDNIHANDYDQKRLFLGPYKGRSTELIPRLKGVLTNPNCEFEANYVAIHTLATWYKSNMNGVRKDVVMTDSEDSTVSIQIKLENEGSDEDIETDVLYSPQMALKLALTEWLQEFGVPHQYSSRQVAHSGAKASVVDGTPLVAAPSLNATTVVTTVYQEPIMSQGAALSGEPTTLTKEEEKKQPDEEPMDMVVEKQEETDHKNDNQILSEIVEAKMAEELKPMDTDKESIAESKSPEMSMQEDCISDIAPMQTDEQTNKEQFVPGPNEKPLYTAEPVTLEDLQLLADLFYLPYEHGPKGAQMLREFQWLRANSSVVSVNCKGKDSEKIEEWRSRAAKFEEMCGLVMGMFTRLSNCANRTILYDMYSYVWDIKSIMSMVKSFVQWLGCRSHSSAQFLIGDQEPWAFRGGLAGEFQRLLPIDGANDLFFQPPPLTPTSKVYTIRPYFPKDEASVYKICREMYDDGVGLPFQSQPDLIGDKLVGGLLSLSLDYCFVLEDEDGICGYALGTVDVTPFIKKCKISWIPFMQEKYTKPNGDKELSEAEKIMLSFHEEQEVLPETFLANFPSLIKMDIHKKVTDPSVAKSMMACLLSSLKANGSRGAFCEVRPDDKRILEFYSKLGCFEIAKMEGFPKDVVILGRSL
# Experiment: OGA Enzyme Inhibition Biochemical Assay
# Conditions: 1 nM OGA, 100 μM 4-MUGlcNAc (Km), pH 6.4, 90 minutes at room temperature; 10-point dose-response starting from 20 μM
# Description: OGA Enzyme Inhibition Biochemical Assay
# Recombinant full length human OGA enzyme was purchased from Origene. 4-MUGlCNAc substrate was purchased from Sigma. All other reagents were purchased from Sigma or Fisher. Assay buffer consists of the McIlvaine buffer system, pH 6.4 (0.2M Na2HPO4 mixed with 0.1M citric acid) and 0.01% BSA. Reactions consist of 1 nM OGA, 100 μM 4-MUGlcNAc (Km), and compound in a final volume of 10 μl. Reactions were incubated for 90 minutes at room temperature and quenched with 40 μl of 3M glycine, pH 10 and read on a Perkin Elmer Envision plate reader (Ex: 355 nm/Em: 460 nm). Compounds were tested with a 10-point dose-response starting from 20 μM with a 4-fold dilution. Data was fit using GraphPad Prism using a 4-paramter fit with variable slope.
row,SMILES,IC50
1,"CC(=O)Nc1ncc(CN2C[C@@H](Cc3ncc(F)cn3)O[C@@H](C)C2)s1 (racemic) [Example 1-34, N-(5-(((cis)-2-((5-fluoropyrimidin-2-yl)methyl)-6-methylmorpholino)methyl)thiazol-2-yl)acetamide]",0.68 µM
2,"CC(=O)Nc1ncc(CN2CCCOC(Cc3cc(C)nc(C)c3)C2)s1 (racemic) [Example 1-36, N-(5-((2-((2,6-dimethylpyridin-4-yl)methyl)-1,4-oxazepan-4-yl)methyl)thiazol-2-yl)acetamide]",0.057 µM
3,"CC(=O)Nc1ncc(CN2CCCOC(Cc3ncc(F)cn3)C2)s1 (racemic) [Example 1-38, N-(5-((2-((5-fluoropyrimidin-2-yl)methyl)-1,4-oxazepan-4-yl)methyl)thiazol-2-yl)acetamide]",0.045 µM
4,"COc1cc(CC2CN(Cc3cnc(NC(C)=O)s3)CCCO2)ccn1 (racemic) [Example 1-40, N-(5-((2-((2-methoxypyridin-4-yl)methyl)-1,4-oxazepan-4-yl)methyl)thiazol-2-yl)acetamide]",0.099 µM
5,"CC(=O)Nc1ncc(CN2CCOCC(Cc3cc(C)nc(C)c3)C2)s1 (racemic) [Example 1-42, N-(5-((6-((2,6-dimethylpyridin-4-yl)methyl)-1,4-oxazepan-4-yl)methyl)thiazol-2-yl)acetamide]",0.019 µM
6,"CC(=O)Nc1ncc(CN2CCOCC(Cc3ncc(F)cn3)C2)s1 (racemic) [Example 1-44, N-(5-((6-((5-fluoropyrimidin-2-yl)methyl)-1,4-oxazepan-4-yl)methyl)thiazol-2-yl)acetamide]",0.032 µM
7,"COc1cc(CC2COCCN(Cc3cnc(NC(C)=O)s3)C2)ccn1 (racemic) [Example 1-46, N-(5-((6-((2-methoxypyridin-4-yl)methyl)-1,4-oxazepan-4-yl)methyl)thiazol-2-yl)acetamide]",0.042 µM
8,"CC(=O)Nc1ncc(C(C)N2CCO[C@H](Cc3ncc(F)cn3)C2)s1 (single isomer, unassigned) [Example 1-23 Peak 1]",0.019 µM
9,"CC(=O)Nc1ncc(C(C)N2CCO[C@H](Cc3ncc(F)cn3)C2)s1 (single isomer, unassigned) [Example 1-23 Peak 2]",0.36 µM
10,"CC(=O)Nc1ncc(CN2CCOC(C(C)c3ncc(F)cn3)C2)s1 (single isomer, unassigned) [Example 1-25 Peak 1]",0.0053 µM
11,"CC(=O)Nc1ncc(CN2CCOC(C(C)c3ncc(F)cn3)C2)s1 (single isomer, unassigned) [Example 1-25 Peak 2]",0.073 µM
12,"CC(=O)Nc1ncc(CN2CCOC(C(C)c3ncc(F)cn3)C2)s1 (single isomer, unassigned) [Example 1-25 Peak 3]",0.16 µM
13,"CC(=O)Nc1ncc(CN2CCOC(C(C)c3ncc(F)cn3)C2)s1 (single isomer, unassigned) [Example 1-25 Peak 4]",1.3 µM
14,"CC(=O)Nc1ncc(CN2CC(C)OC(Cc3ncc(F)cn3)C2)s1 (single isomer, unassigned) [Example 1-35 Peak 1]",0.56 µM
15,"CC(=O)Nc1ncc(CN2CCCOC(Cc3cc(C)nc(C)c3)C2)s1 (single isomer, unassigned) [Example 1-37 Peak 1]",0.031 µM
16,"CC(=O)Nc1ncc(CN2CCCOC(Cc3cc(C)nc(C)c3)C2)s1 (single isomer, unassigned) [Example 1-37 Peak 2]",0.11 µM
17,"CC(=O)Nc1ncc(CN2CCCOC(Cc3ncc(F)cn3)C2)s1 (single isomer, unassigned) [Example 1-39 Peak 1]",0.02 µM
18,"CC(=O)Nc1ncc(CN2CCCOC(Cc3ncc(F)cn3)C2)s1 (single isomer, unassigned) [Example 1-39 Peak 2]",0.76 µM
19,"COc1cc(CC2CN(Cc3cnc(NC(C)=O)s3)CCCO2)ccn1 (single isomer, unassigned) [Example 1-41 Peak 1]",0.039 µM
20,"COc1cc(CC2CN(Cc3cnc(NC(C)=O)s3)CCCO2)ccn1 (single isomer, unassigned) [Example 1-41 Peak 2]",0.27 µM
